Measured values as given in publication PMC9612231, “Antileishmanial Anthracene Endoperoxides: Efficacy In Vitro, Mechanisms and Structure-Activity Relationships” (Molecules, 2022).

What was measured:
LtP = assay: Cellular oxygen consumption of LtP (OxoPlates); format: cell-based, Leishmania tarentolae; conditions: 200 µM compound, 140 × 10^6 cells/mL
Text: (§1) The experimental data so far indicate that in more complex EP not only the endoperoxyl group contributes to its pharmacological actions. Therefore, mitochondria present in the parasites but also in the host cells could be either a trigger for activating pharmacological actions of these compounds or a target of EP-derived radicals generated at other sites in the cell. In a subsequent experiment, we tested the influence of AcEP and non-endoperoxidic analogs (Ac) on the mitochondrial oxygen consumption in LtP and J774 macrophages (Figure 9).
(§2) Oxygen consumption rates of LtP in complete BHI culture medium and J774 in PBS-gluc treated with AcEPs were measured using round-bottomed OxoPlates (OP96U, Precision Sensing GmbH, Regensburg, Germany). […] Then, the fluorescence of both calibration media was measured at a microplate reader (Perkin Elmer EnSpire, Rodgau, Germany) in a dual kinetic mode, using an excitation wavelength of 540 nm for both dyes and emission wavelengths of 650 nm for the indicator dye and 590 nm for the reference dye. The ratio of both fluorescence intensities (IR) was calculated for each well and averaged giving the two calibration constants k0 (oxygen-free) or k100 (air-saturated). […] Both fluorescence intensities of each well were determined in 5 min intervals over up to 40 min. Each compound was measured in quadruplicates. […]

J774 macrophages = assay: Cellular oxygen consumption of J774 cells (OxoPlates); format: cell-based, murine; conditions: 200 µM compound, 2 × 10^6 cells/mL
Text: as §1, §2

SMILES | Inhibition of mitochondrial oxygen consumption in LtP (LtP) | Inhibition of mitochondrial oxygen consumption in J774 macrophages (J774 macrophages)
CC(C)(C)c1ccc2c(c1)C1(c3cccnc3)OOC2(c2cccnc2)c2ccccc21 (stereo not drawn) [mPyBuAcEP] | interfered strongly | more moderate
CC(C)(C)c1ccc2c(-c3cccnc3)c3ccccc3c(-c3cccnc3)c2c1 [mPyBuAc] | even stronger inhibition | 
